Where a name gives a salt, the structure may show the parent alone.
Target: FGFR1 active kinase (Homo sapiens, UniProt P11362)
Assay: FGFR Kinase assay - Caliper
Type: biochemical
Conditions: FGFR1 […], 408 uM ATP; mean of n as printed; read-out: FGFR Kinase assay - Caliper, IC50
Procedure: FGFR Kinase Assay—Caliper
To determine inhibition of FGFR activity, kinase assays were conducted using Caliper technology.
Kinase activity assays were performed in Greiner 384-well low volume plates, with a total reaction volume of 12 ul per well. Final concentration of FGFR1 active kinase in each reaction well was 7.2 nM. The substrate for each assay was a custom peptide with fluorescent tag (13 amino acids in length, […] with the fluorescene tag on the first K).
Compounds were serially diluted in 5% (v/v) DMSO, before being added to assay plates. The Enzyme (at 7.2 nM [final]) and Substrate (at 3.6 uM [final]) were added separately to the compound plates, in reaction buffer [comprising: 50 mM MOPS (Sigma, Catalogue No. M1254)—pH 6.5, 0.004% Triton (Sigma, Catalogue No. X-100), 2.4 mM DTT, 12 mM MgCl2, 408 uM ATP] resulting in a final DMSO concentration in the reaction mix of 0.8%.
Assay plates were incubated at room temperature for 1.5 h, before the reaction was stopped with the addition of buffer [comprising: 100 mM HEPES—pH7.5, 0.033% Brij-35 (Sigma Catalogue No. B4184), 0.22% Caliper Coating Reagent #3 (Caliper Life Sciences Catalogue No. 760050), 88 mM EDTA, 5% DMSO]. Stopped assay plates were then read using the Caliper LabChip® LC3000 (which uses microfludics to measure a shift in mobility between fluorescent labelled peptide and the FGFR1 kinase—phosphorylated form of this peptide).
In the assay, compounds were tested at a range of concentrations.
Percentage inhibition at 1 uM, as expressed herein, is a calculated value based on the curve fit that was generated experimentally. From the fitted curve plot, the effect of compound at a concentration of 1 uM was calculated as a percentage inhibition. The IC50 is the concentration of compound, which inhibits FGFR1 kinase activity by 50% in the context of this assay.

FGFR1 active kinase, sequence (P11362 22-822): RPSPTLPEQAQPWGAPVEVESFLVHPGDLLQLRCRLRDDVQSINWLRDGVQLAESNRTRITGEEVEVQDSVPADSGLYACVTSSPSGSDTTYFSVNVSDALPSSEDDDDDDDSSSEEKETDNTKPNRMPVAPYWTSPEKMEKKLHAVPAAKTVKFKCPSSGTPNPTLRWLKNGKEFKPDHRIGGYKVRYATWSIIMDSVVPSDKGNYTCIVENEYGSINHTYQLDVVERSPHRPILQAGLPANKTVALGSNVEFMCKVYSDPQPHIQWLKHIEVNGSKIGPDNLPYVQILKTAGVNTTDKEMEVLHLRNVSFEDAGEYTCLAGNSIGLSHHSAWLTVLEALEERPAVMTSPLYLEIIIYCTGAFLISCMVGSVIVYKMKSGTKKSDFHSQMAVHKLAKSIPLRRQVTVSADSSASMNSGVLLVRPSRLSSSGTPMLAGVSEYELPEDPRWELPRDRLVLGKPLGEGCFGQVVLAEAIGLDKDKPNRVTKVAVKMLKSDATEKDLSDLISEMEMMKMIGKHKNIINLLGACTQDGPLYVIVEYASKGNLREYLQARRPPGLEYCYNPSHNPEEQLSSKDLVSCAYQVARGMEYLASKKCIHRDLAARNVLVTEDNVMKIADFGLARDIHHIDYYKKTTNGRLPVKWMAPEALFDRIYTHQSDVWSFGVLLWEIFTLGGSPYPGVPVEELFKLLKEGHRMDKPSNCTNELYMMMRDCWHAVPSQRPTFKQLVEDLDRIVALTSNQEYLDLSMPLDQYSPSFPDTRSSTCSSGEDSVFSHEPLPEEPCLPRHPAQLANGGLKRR

Structure (SMILES)	IC50 [µM]
COc1cccc(CCc2cc(NC(=O)c3ccc(Cl)nc3)[nH]n2)c1 [Example 62, 6-Chloro-N-[5-[2-(3-methoxyphenyl)ethyl]-2H-pyrazol-3-yl]pyridine-3-carboxamide]	4.54
COc1cccc(CCc2cc(NC(=O)c3cc(O)ccn3)[nH]n2)c1 [Example 64, 4-Hydroxy-N-[5-[2-(3-methoxyphenyl)ethyl]-2H-pyrazol-3-yl]pyridine-2-carboxamide]	5
COC(=O)c1ccc(C(=O)Nc2cc(CCc3cccc(OC)c3)n[nH]2)cn1 [Example 67, Methyl 5-[[5-[2-(3-methoxyphenyl)ethyl]-2H-pyrazol-3-yl]carbamoyl]pyridine-2-carboxylate]	2.86
COc1cc(COc2cc(NC(=O)c3ccc(N4CCN(C)CC4)cn3)[nH]n2)cc(OC)c1 [Example 69, N-[5-[(3,5-Dimethoxyphenyl)methoxy]-2H-pyrazol-3-yl]-5-(4-methylpiperazin-1-yl)pyridine-2-carboxamide]	0.122
COc1ccc(C(=O)Nc2cc(OCc3cc(OC)cc(OC)c3)n[nH]2)cc1 [Example 71, N-[5-[(3,5-Dimethoxyphenyl)methoxy]-2H-pyrazol-3-yl]-4-methoxy-benzamide]	0.157
COc1cc(COc2cc(NC(=O)c3ccc(N4CCNCC4)nc3)[nH]n2)cc(OC)c1 [Example 72, N-[5-[(3,5-Dimethoxyphenyl)methoxy]-2H-pyrazol-3-yl]-6-piperazin-1-yl-pyridine-3-carboxamide]	0.025
COc1cc(COc2cc(NC(=O)c3cnc(N4CCN(C)CC4)nc3)n[nH]2)cc(OC)c1 [Example 73, N-[5-[(3,5-Dimethoxyphenyl)methoxy]-1H-pyrazol-3-yl]-2-(4-methylpiperazin-1-yl)pyrimidine-5-carboxamide]	0.044
CN(C)Cc1ccc(CCc2cc(NC(=O)c3ccc(N4CCN(C)CC4)cc3)n[nH]2)o1 [Example 76, N-[5-[2-[5-(Dimethylaminomethyl)-2-furyl]ethyl]-1H-pyrazol-3-yl]-4-(4-methylpiperazin-1-yl)benzamide]	0.34

Further compounds by falling IC50, results first:

IC50 [µM]	Structure (SMILES)
68	COC(=O)c1ccc(C(=O)Nc2cc(CCc3cccc(OC)c3)n[nH]2)nc1 [Example 61, Methyl 6-[[5-[2-(3-methoxyphenyl)ethyl]-2H-pyrazol-3-yl]carbamoyl]pyridine-3-carboxylate]
3.77	COc1cccc(CCc2cc(NC(=O)c3ccc(C#N)nc3)[nH]n2)c1 [Example 63, 6-Cyano-N-[5-[2-(3-methoxyphenyl)ethyl]-2H-pyrazol-3-yl]pyridine-3-carboxamide]
1.02	COc1cccc(CCc2cc(NC(=O)c3ccc(C(=O)O)nc3)[nH]n2)c1 [Example 66, 5-[[5-[2-(3-Methoxyphenyl)ethyl]-2H-pyrazol-3-yl]carbamoyl]pyridine-2-carboxylic Acid]
0.24	COc1cccc(CCc2cc(NC(=O)c3ccc(CCN4CCCC4)nc3)[nH]n2)c1 [Example 65, N-[5-[2-(3-Methoxyphenyl)ethyl]-2H-pyrazol-3-yl]-6-(2-pyrrolidin-1-ylethyl)pyridine-3-carboxamide]
0.13	COc1cc(COc2cc(NC(=O)c3cccc(N4CCNCC4)c3)n[nH]2)cc(OC)c1 [Example 74, N-[5-[(3,5-Dimethoxyphenyl)methoxy]-1H-pyrazol-3-yl]-3-piperazin-1-yl-benzamide]
0.031	COc1cc(COc2cc(NC(=O)c3ccc(NCCN(C)C)cc3)[nH]n2)cc(OC)c1 [Example 70, N-[5-[(3,5-Dimethoxyphenyl)methoxy]-2H-pyrazol-3-yl]-4-(2-dimethylaminoethylamino)benzamide Hydrochloride]
0.0085	COc1cc(COc2cc(NC(=O)c3ccc(N4CCCNCC4)cc3)n[nH]2)cc(OC)c1 [Example 75, 4-(1,4-Diazepan-1-yl)-N-[5-[(3,5-dimethoxyphenyl)methoxy]-1H-pyrazol-3-yl]benzamide Hydrochloride]
